From patent publication US5618724A, “Antibiotics GE 37468 A, B and C” (Gruppo Lepetit SpA, priority 1996, dated 1997)

Key:
[1] = system: Staphylococcus haemolyticus L602; conditions: Iso-Sensitest broth, 10^4 CFU/ml, 20-24 h, 37° C.
[2] = system: Propionibacterium acnes ATCC 6919; test: MIC by broth microdilution; type: cell-based; conditions: Wilkins-Chalgren broth, 10^5 CFU/ml, 48 h, N2:CO2:H2 (80:10:10)
[3] = system: Clostridium perfringens L290; conditions: Wilkins-Chalgren broth, 10^5 CFU/ml, 48 h, N2:CO2:H2 (80:10:10)
[4] = system: Enterococcus faecalis ATCC 7080; conditions: Iso-Sensitest broth, 10^4 CFU/ml, 20-24 h, 37° C.
[5] = system: Staphylococcus aureus Smith; conditions: Iso-Sensitest broth, 10^4 CFU/ml, 20-24 h, 37° C.
[6] = system: Staphylococcus epidermidis ATCC 12228; conditions: Iso-Sensitest broth, 10^4 CFU/ml, 20-24 h, 37° C.
[7] = system: Staphylococcus aureus L165; conditions: Iso-Sensitest broth, 10^4 CFU/ml, 20-24 h, 37° C.

Structure (SMILES)	M.I.C. [1] [microgram/ml]	M.I.C. [2] [microgram/ml]	M.I.C. [3] [microgram/ml]	M.I.C. [4] [microgram/ml]	M.I.C. [5] [microgram/ml]	M.I.C. [6] [microgram/ml]	M.I.C. [7] [microgram/ml]
Cc1oc2nc1C(=O)NC(CC(N)=O)c1nc(cs1)C(=O)NC(Cc1ccccc1)C1=NC(CS1)C(=O)NC(Cc1ccc(O)cc1)C(=O)N1C(O)CC(C)C1c1nc(cs1)-c1nc(cs1)-c1nc(-c3nc(C(N)=O)cs3)ccc1-2 (centres unmarked) [GE37468B]	0.13	0.016	0.016	0.03	0.03	0.06	0.03
C=C(NC(=O)c1csc(-c2ccc3c(n2)-c2csc(n2)-c2csc(n2)C2C(C)CC(O)N2C(=O)C(Cc2ccc(O)cc2)NC(=O)C2CSC(=N2)C(Cc2ccccc2)NC(=O)c2csc(n2)C(CC(N)=O)NC(=O)c2nc-3oc2C)n1)C(N)=O (centres unmarked) [GE37468C]	0.13	0.616	0.016	0.03	0.03	0.25	0.03
